Measurements: US20250065090A1, “DEVICE AND METHOD FOR DELIVERY OF A HEARING DRUG FORMULATION” (Corti Therapeutics Pte. Ltd., priority 2023, published 2025)
Like-named read-outs stand apart in the source and are kept apart here.

Key:
[1] = test system: patients receiving cisplatin; conditions: cited from earlier work
[2] = test system: cisplatin hearing loss model
Description: A solution of freshly prepared sodium thiosulfate solution was loaded in a Hamilton syringe with 26 G needle.

[3] = after STS local administration
Procedure: The time-concentration data was used for calculations. The area under the concentration-time curve (AUC) was determined by the trapezoidal rule. Terminal elimination half-lives of sodium thiosulfate (STS) in perilymph and plasma were determined by use of WIN NONLIN version 2.0 SCI.
30 guinea pigs (250-350 g) without sign of otitis media stayed for ˜3 days acclimation, and ready for PK study. Two anesthesia methods (Zoletil+Xylazine with head up 30 min) and Isoflurane (animal wake up immediately post-injection)] were used. 15 animals for each group.
The subjection guinea pig was anesthetized with zolazepam hydrochloride (Zoletil) and Xylazine or isoflurane inhalation. A solution of freshly prepared sodium thiosulfate solution was loaded in a Hamilton syringe with 26 G needle. The needle was carefully inserted into the left middle ear cavity via the tympanic membrane aiming to cochlear round window. ˜50 μL of dosing solution was injected. The animal was positioned head up for ˜30 min prior to waking up in Zoletil and Xylazine or wake up immediately in isoflurane inhalation.
In C-subgroup of each group, animal blood was systemically drawn (˜100 uL) via bilateral saphenous vein at the multiple time points. Put the collection blood in heparinized tube and stay ˜20 min. ˜50 μL of plasma was collected in microtube and put in −80° C. for future analysis.
STS concentrations were quantitatively analyzed by HPLC using an LC-20AT with a SPD-M20A UV-Vis detector (Shimadzu, Kyoto, Japan) and a LiChrospher RP-select B LiChroCART 250-4 […] column (EMD Millipore Corp, Darmstadt, Germany). All samples were prepared using a method similar to that described by Togawa et al. (1992).

[4] = Calculated osmolarity of STS formulation; type: physicochemical; conditions: aqueous solution of sodium thiosulfate 0.1M to 0.5M
[5] = test system: cisplatin induced hearing loss; conditions: intratympanic administration, multiple clinical trials; cited from earlier work
[6] = test system: cisplatin induced hearing loss; conditions: intratympanic injection, animal studies; cited from earlier work
[7] = test system: cisplatin induced hearing loss; conditions: systemic administration, humans; cited from earlier work

Structure (SMILES)	cure rate ([1]; cisplatin based chemotherapy, testicular cancer) [%]	patients developing hearing loss ([1]; human, in vivo)	hearing protection ([2]; 0.2M concentration, simple aqueous formulation without gelling agent, guinea pig cisplatin hearing loss model)	protection of the sodium thiosulfate treated ears (ABR) ([2]; all groups (2.5%, 5% and 10% sodium thiosulfate), TT or IT injection ~30 min before cisplatin 10 mg/kg iv, ABR 7 days after infusion, treated vs untreated contralateral ear)	Tmax of systemic thiosulfate [3]	systemic thiosulfate concentration [3]	time until systemic thiosulfate concentration recovered to normal [3]	calculated osmolarity [4] [mOsm/L]	hearing protection [5]	effect on cisplatin induced hearing loss [6]	effect on cisplatin induced hearing loss [7]
N.N.[Cl][Pt][Cl] [cisplatin, Cisplatin]	> 90	60%-80%	–	–	–	–	–	–	–	–	–
O=S([O-])([O-])=S.[Na+].[Na+] [sodium thiosulfate]	–	–	full hearing protection	nearly completed protection	approximately 30 min	increased	around 1 hour	< 1500	no meaningful hearing protection	prevented the cisplatin induced hearing loss	mitigate cisplatin induced hearing loss
